Experiments:
MOLM-13 (FLT3-ITD) = experiment: In vitro growth inhibition of MOLM-13 tumor cells (MTT/CCK8); type: cell-based, Human; settings: Homo sapiens, MOLM-13; in vitro growth inhibition (or induction of apoptosis), cells cultured 3 to 5 days, MTT (CCK8); read-out: IC50 MOLM-13 (FLT3-ITD)
MDA-MB-453 = experiment: In vitro growth inhibition of MDA-MB-453 cells; type: cell-based; settings: Homo sapiens, PI3KCA H1047R, FGFR4+++/Y367C
Description: (§1) Adherent cells were digested with 0.25% trypsin-EDTA (Gibco). Suspension culture cells were collected by centrifugation (1700 rpm, 3 minutes). The supernatant was discarded and the cells were counted. According to each cell growth cycle, different concentrations of cells were prepared (5˜10×10^4 cells per ml), and inoculated to 96-well plates (Corning), with 100 μl per well, and incubated overnight at 37° C., 5% CO2. The next day, the test compound was added to the cultured cells (2 wells in parallel). The final concentration of the solvent was less than 1/1,000. The cells were further cultured for 3 to 5 days and assayed by MTT.
(§2) The MTT test reagent was a Dojindo CCK8 kit and the Microplate Reader was a THERMO […] FC instrument.
(§3) The adherent cells were taken out from the cell culture medium, and immediately added to a freshly prepared complete medium containing 10% CCK8 (5% FBS), 100 ul per hole. The suspended cells were directly added to a CCK8 reagent until reaching a final concentration of 10% and cultured for 1 to 4 hours. When a dark yellow color could be observed in the solvent control wells, the absorbance value at OD450 nm was measured and the cell growth rate was calculated according to the following formula: Cell Growth Rate (%)=100×(T−T0)/(C−T0)
(§4) T=optical density of drug-treated cell wells−optical density of blank control wells; T0=optical density of cell wells before drug treatment−optical density of blank control wells; C=optical density of solvent control wells−optical density of blank control wells. […] The experiments were repeated 1 to 3 times and a statistical analysis of data was conducted.
(§5) Mutations in the FGFR1-4 gene often occur in different types of cancer patients. In order to test the growth inhibition activity of the present compound against tumor cells expressing different FGFR variants, tumor cell lines expressing representative FGFR1-4 were selected for further determining the activity of compounds 25, 66, 38 and 95 of the present invention. BGJ398, a selective inhibitor of FGFR1-4, was used as the control compound. The specific test method is the same as test example 1.

Cal-120 = experiment: In vitro growth inhibition of Cal-120 cells; type: cell-based; settings: Homo sapiens, FGFR1 amp
Description: as §1, §2, §3, §4, §5

Karpas 299 (NPM-ALK) = experiment: In vitro growth inhibition of Karpas 299 tumor cells (MTT/CCK8); type: cell-based, Human; settings: Homo sapiens, KARPAS-299; in vitro growth inhibition (or induction of apoptosis), cells cultured 3 to 5 days, MTT (CCK8); read-out: IC50 Karpas 299 (NPM-ALK)
PLC/PRF/5 = experiment: In vitro growth inhibition of PLC/PRF/5 cells; type: cell-based; settings: Homo sapiens, FGFR3+++, FGFR4 +++
Description: as §1, §2, §3, §4, §5

A375 = experiment: In vitro growth inhibition of A375 cells; type: cell-based; settings: Homo sapiens, A-375, BRAF V600E, FGFR2 mutant
Description: as §1, §2, §3, §4, §5

KATO III (FGFR2 amp) = experiment: In vitro growth inhibition of KATO III tumor cells (MTT/CCK8); type: cell-based, Human; settings: Homo sapiens, KATO III; in vitro growth inhibition (or induction of apoptosis), cells cultured 3 to 5 days, MTT (CCK8); read-out: IC50 KATO III (FGFR2 amp)
SNU-16 = experiment: In vitro growth inhibition of SNU-16 cells; type: cell-based; settings: Homo sapiens, FGFR2 amp
Description: as §1, §2, §3, §4, §5

AGS = experiment: In vitro growth inhibition of PI3KCA amplified/mutant tumor cells AGS; type: cell-based; settings: Homo sapiens, PI3KCA E453K/E545A, KRAS G12D, read-out: IC50 growth inhibition
Description: as §1, with “Suspension” for “Adherent cells were digested with 0.25% trypsin-EDTA (Gibco). Suspension”
(§6) The adherent cells were taken out from the cell culture medium, and immediately added to a freshly prepared complete medium containing 10% CCK8 (5% FBS), 100 ul per hole. The suspended cells were directly added to a CCK8 reagent until reaching a final concentration of 10% and cultured for 1 to 4 hours.
as §4

H1581 (FGFR1 amp) = experiment: In vitro growth inhibition of H1581 tumor cells (MTT/CCK8); type: cell-based, Human; settings: Homo sapiens, NCI-H1581; in vitro growth inhibition (or induction of apoptosis), cells cultured 3 to 5 days, MTT (CCK8); read-out: IC50 H1581 (FGFR1 amp)
Kasumi-1 (KIT N822K) = experiment: In vitro growth inhibition of Kasumi-1 tumor cells (MTT/CCK8); type: cell-based, Human; settings: Homo sapiens, Kasumi 1; in vitro growth inhibition (or induction of apoptosis), cells cultured 3 to 5 days, MTT (CCK8); read-out: IC50 Kasumi-1 (KIT N822K)
KYSE70 = experiment: In vitro growth inhibition of PI3KCA amplified/mutant tumor cells KYSE70; type: cell-based; settings: Homo sapiens, KYSE-70; KYSE70; PI3KCA amp; KIT G779C; read-out: IC50 growth inhibition
Description: as §1, with “Suspension” for “Adherent cells were digested with 0.25% trypsin-EDTA (Gibco). Suspension”
as §6, §4

JHH-7 = experiment: In vitro growth inhibition of JHH-7 cells; type: cell-based; settings: Homo sapiens, JHH7, FGFR3+++, FGFR4 +++
Description: as §1, §2, §3, §4, §5

Q: Which IC50 (MOLM-13 (FLT3-ITD)) does the source give for `COCCOc1cc2nccc(Oc3ccc(NC(=O)Nc4cc(C(C)(C)C)n[nH]4)c(Cl)c3)c2cc1NC(C)=O` [Compound 66, N-[4-{4-[3-(5-tert-butyl-2H-pyrazol-3-yl)-ureido]-3-chloro-phenoxy}-7-(2-methoxy-ethoxy)-quinolin-6-yl]-acetamide] here?
A: 0.87 nM

Q: What about the IC50 (MDA-MB-453) of the same compound?
A: 19.3 nM

Q: And the IC50 (Cal-120)?
A: 9.77 nM

Q: And the IC50 (Karpas 299 (NPM-ALK))?
A: 44.1 nM

Q: What about the IC50 (PLC/PRF/5) of the same compound?
A: 2.67 nM

Q: What about the IC50 (A375) of the same compound?
A: 31.5 nM

Q: What about the IC50 (KATO III (FGFR2 amp)) of the same compound?
A: 0.08 nM

Q: What about the IC50 (SNU-16) of the same compound?
A: 1.01 nM

Q: And the IC50 (AGS)?
A: 43.5 nM

Q: And the IC50 (H1581 (FGFR1 amp))?
A: 2.03 nM

Q: What about the IC50 (Kasumi-1 (KIT N822K)) of the same compound?
A: 1.13 nM

Q: What about the IC50 (KYSE70) of the same compound?
A: 29.6 nM

Q: What about the IC50 (JHH-7) of the same compound?
A: 12.9 nM

Q: Which IC50 (MOLM-13 (FLT3-ITD)) does the source give for `COc1cc2nccc(Oc3ccc(NC(=O)Nc4cc(C(C)(C)C)nn4C)c(Cl)c3Cl)c2cc1C(N)=O` [Compound 38, 4-{4-[3-(5-tert-butyl-2-methyl-2H-pyrazol-3-yl)-ureido]-2,3-dichloro-phenoxy}-7-methoxyquinolin-6-carboxamide] here?
A: 0.85 nM

Q: And the IC50 (MDA-MB-453)?
A: 19.8 nM

Q: What about the IC50 (Cal-120) of the same compound?
A: 9.77 nM

Q: What about the IC50 (Karpas 299 (NPM-ALK)) of the same compound?
A: 11.7 nM

Q: And the IC50 (PLC/PRF/5)?
A: 2.08 nM

Q: What about the IC50 (A375) of the same compound?
A: 16.7 nM

Q: What about the IC50 (KATO III (FGFR2 amp)) of the same compound?
A: 0.18 nM

Q: What about the IC50 (SNU-16) of the same compound?
A: 2.03 nM

Q: What about the IC50 (AGS) of the same compound?
A: 41.1 nM

Q: And the IC50 (H1581 (FGFR1 amp))?
A: 0.29 nM

Q: What about the IC50 (Kasumi-1 (KIT N822K)) of the same compound?
A: 1.32 nM

Q: And the IC50 (KYSE70)?
A: 9.7 nM

Q: What about the IC50 (JHH-7) of the same compound?
A: 9.89 nM

Q: For `CN1CCN(CCCOc2cc3nccc(Oc4ccc(NC(=O)Nc5cc(C(C)(C)C)n[nH]5)c(Cl)c4Cl)c3cc2C(N)=O)CC1` [Compound 95], which IC50 (MOLM-13 (FLT3-ITD)) is on record?
A: 1.75 nM

Q: What about the IC50 (MDA-MB-453) of the same compound?
A: 49.2 nM

Q: What about the IC50 (Cal-120) of the same compound?
A: 9.77 nM

Q: And the IC50 (Karpas 299 (NPM-ALK))?
A: 7.5 nM

Q: And the IC50 (PLC/PRF/5)?
A: 2.37 nM

Q: What about the IC50 (A375) of the same compound?
A: 62.1 nM

Q: What about the IC50 (KATO III (FGFR2 amp)) of the same compound?
A: 0.91 nM

Q: And the IC50 (SNU-16)?
A: 3.34 nM

Q: And the IC50 (AGS)?
A: 39.9 nM

Q: And the IC50 (H1581 (FGFR1 amp))?
A: 7.88 nM

Q: And the IC50 (Kasumi-1 (KIT N822K))?
A: 1.34 nM

Q: And the IC50 (KYSE70)?
A: 18.9 nM

Q: And the IC50 (JHH-7)?
A: 17.6 nM

From patent US10800741B2 (ANCUREALL PHARMACEUTICAL (SHANGHAI) CO., LTD., priority 2017, dated 2020)
